The text below walks through data of US10683286B2, “Furazan-3-carboxylic acid derivatives and use thereof in treatment of cancer” (FREIE UNIVERSITAET BERLIN, priority 2016, dated 2020).

Where two headings read alike, the source gives them in different places. Where a SMILES comes first, the peptide text is derived from it. [ ]: non-standard residue; d: D form. The star is where a group is joined. 5FAM = O=C1OC2(c3ccc(O)cc3Oc3cc(O)ccc32)c2ccc(C(=O)*)cc21; pY = N[C@@H](Cc1ccc(OP(=O)(O)O)cc1)C(=O)O

One data set deals with T1, STAT5b-SH2 domain (Homo sapiens, UniProt P51692).
T1 sequence (P51692 136-703): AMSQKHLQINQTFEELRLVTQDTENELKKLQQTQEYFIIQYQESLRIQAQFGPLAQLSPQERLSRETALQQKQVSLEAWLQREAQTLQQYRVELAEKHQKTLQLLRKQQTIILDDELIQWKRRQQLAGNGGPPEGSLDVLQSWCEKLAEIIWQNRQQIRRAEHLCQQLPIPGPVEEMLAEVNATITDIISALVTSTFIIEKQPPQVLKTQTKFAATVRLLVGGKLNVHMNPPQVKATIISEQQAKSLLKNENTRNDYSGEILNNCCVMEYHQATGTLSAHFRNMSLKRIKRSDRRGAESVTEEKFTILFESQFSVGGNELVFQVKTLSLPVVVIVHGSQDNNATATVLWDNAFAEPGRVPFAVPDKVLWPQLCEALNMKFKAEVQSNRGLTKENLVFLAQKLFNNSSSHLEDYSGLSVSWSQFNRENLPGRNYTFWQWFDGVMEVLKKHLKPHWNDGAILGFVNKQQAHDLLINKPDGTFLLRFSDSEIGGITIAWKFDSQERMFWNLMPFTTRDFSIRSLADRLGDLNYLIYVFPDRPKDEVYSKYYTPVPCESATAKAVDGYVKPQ
Description: Competitive fluorescence polarization (FP) assay, STAT5b-SH2 domain. To be noted: for activity / binding to the STAT5-SH2 domain: in words. (In fluorescence polarisation assays a small probe gives low polarisation when free and higher when bound to something large.)

For the next data set, the system named is BaF3/FLT3-ITD cells. Description: Cell proliferation assay (Alamar blue). In kind it is cell-based, murine. The procedure:
Having proven the functional inhibition of STAT5 as a transcription factor, the effect of STAT5 inhibitors on the proliferation of cancer cells carrying the common FLT3-ITD mutation was investigated. Cells were incubated for 48 h and cell proliferation was quantified by the Alamar blue assay (FIG. 5). […] For comparison, we have tested both compounds on non-STAT5-dependent cell lines and the cytotoxicity effect were negligible up to 500 μM. (FIG. S9).
(§1) The effect of compounds on cell lines was evaluated by In Vitro Toxicology Assay Kit, Resazurin based with indicator dye Alamar Blue (Sigma). Adherent and suspension cells were plated at 5×10^3 per well and 1×10^4 per well respectively in triplicate in 96-well plates and incubated in medium containing 10% FBS. For adherent cell, the complete medium was replaced after 24 hours and incubated with test medium containing vehicle control or serial concentration of compounds for 48 hours at 37° C. The remaining wells in the periphery of the microtiter well plate were added PBS and not used to avoid evaporation effects. Alamar Blue was then added, and all plates were incubated at 37° C., and a colorimetric change was measured according to the methods provided by the provided protocol.
A general note: The colour change of resazurin is a common sign of viable cells or microbes.

Another data set concerns the target T2, STAT3 (Mus musculus, UniProt P42227).
T2 construct: endogenous in cells; context BaF3/FLT3-ITD
Description: STAT3 phosphorylation and expression in cells. It is filed as cell-based. To be noted: selectivity in cells.

A further data set concerns STAT5. As to the kind of experiment: STAT5 phosphorylation, Western blot in BaF3/FLT3-ITD cells. (A western blot detects proteins with antibodies after separation by electrophoresis.)
Data set [1] has as its system non-STAT5-dependent cell lines. As to the kind of experiment: Cytotoxicity on non-STAT5-dependent cell lines. It is filed as cell-based. As to conditions: up to 500 μM. The procedure:
Carol Stocking (University Hospital Hamburg-Eppendorf). […] Cells were incubated at 37° C., 5% CO2 atmosphere.
as §1

Data set [2] concerns Pim1 kinase, cyclin D1 and Bcl-xl. Description: Expression of transcriptional targets of STAT5, Western blot in BaF3/FLT3-ITD cells. It is filed as cell-based, murine. As to conditions: BaF3/FLT-ITD cells, after 6 h. The text has this:
(FIGS. 7A, B). Next, the functional effects of STAT5 inhibitors (6) and (15) on cellular transcription were investigated. For the purpose, the expression of three transcriptional targets of STAT5, namely Pim1 kinase, cyclin D1 and Bcl-xl, which play essential roles in cell cycle progression and survival, was monitored by Western Blotting (FIGS. 6A, B).

T2 sequence (P42227 whole entry): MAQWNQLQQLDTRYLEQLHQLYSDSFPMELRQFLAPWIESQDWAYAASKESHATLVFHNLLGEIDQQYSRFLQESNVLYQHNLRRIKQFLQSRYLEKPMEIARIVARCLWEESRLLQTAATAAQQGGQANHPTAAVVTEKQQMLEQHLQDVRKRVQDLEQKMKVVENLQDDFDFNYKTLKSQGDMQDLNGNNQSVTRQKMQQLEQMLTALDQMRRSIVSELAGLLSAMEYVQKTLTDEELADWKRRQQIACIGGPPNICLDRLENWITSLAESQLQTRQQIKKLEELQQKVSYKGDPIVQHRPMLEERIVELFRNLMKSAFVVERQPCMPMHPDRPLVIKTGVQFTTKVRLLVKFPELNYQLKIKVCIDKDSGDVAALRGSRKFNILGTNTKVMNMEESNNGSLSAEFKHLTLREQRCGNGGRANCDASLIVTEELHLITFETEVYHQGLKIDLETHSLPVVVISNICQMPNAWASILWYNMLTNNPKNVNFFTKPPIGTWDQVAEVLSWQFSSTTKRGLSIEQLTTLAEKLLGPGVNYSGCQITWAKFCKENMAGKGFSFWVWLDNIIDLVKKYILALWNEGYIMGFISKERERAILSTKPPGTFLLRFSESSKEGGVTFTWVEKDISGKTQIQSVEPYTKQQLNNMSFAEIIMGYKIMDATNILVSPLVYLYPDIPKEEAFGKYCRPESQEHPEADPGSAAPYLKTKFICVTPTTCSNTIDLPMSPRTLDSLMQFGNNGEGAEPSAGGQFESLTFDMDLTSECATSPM
Description for STAT3: Cells were seeded at 0.5×10^6 in 6 well plate and allowed to grow overnight followed by 6 hour incubation with test compounds (0.1% DMSO) before protein extraction with M-PER™ Mammalian Protein Extraction Reagent (Pierce) containing 1% (vol/vol) complete protease inhibitor cocktail (Roche Molecular Biochemicals) and 1% (vol/vol) phosphate inhibitor cocktail (Sigma). For Western blotting, 15 μg of protein from each sample were then separated on a 10% SDS-PAGE and transferred to a PVDF membrane. The blots were blocked with TBST buffer (20 mM Tris-HCl [pH 7.4], 140 mM sodium chloride, and 0.05% Tween 20) containing 5% BSA at room temperature for 1 hour, washed 3 times in TBST buffer, and incubated with primary antibody overnight at 4° C. The membranes were then incubated with HRP-conjugated secondary antibody at room temperature for 1 hour. The reaction products were detected using Syngene Pxi4 imager and quantified by Image J.
Description for STAT5b-SH2 domain: The ChemBioNet fragment collection composed in accordance with the substructure composition of the World Drug Index (WDI) was screened both for enhancing and inhibiting fragments of the phosphopeptide-STAT5 interaction.
The clone for Stat5b expression was kindly provided by Thorsten Berg (MPI, Martinsried). Expression of that truncated version of Stat5b (aa 136-703) cloned into a modified pQE70, with N-terminal MBP-tag and C-terminal His-tag was conducted on autoinduction medium (overnight express/Novagen). Cells were grown to an optical density (O.D.) of 0.3 at 37° C., then the temperature was reduced to 20° C. for further 48 h of expression. […] The protein was purified by Ni-chelating chromatography followed by gel filtration (Superdex 200/10 mM HEPES pH 7.8, 100 mM NaCl, 1 mM EDTA, 1 mM DTT, 10% glycerol). A yield of 15 mg MBP-Stat5b-His per liter of culture was obtained and aliquots (200 μl of 3.2 mg/ml) were quick-frozen and stored at −80° C., ready for use.
17000 compounds from the (FMP) ChemBioNet library were tested in a competitive-based fluorescence polarization (FP) assay to investigate the ability of compounds to bind to STAT5b-SH2 domain by displacing respective fluorophore-labeled peptides (5-carboxyfluorescein-GY (PO3H2) LSLPPW-NH2). The peptide purity was >95% and the screening were performed at room temperature. The final concentration of buffer components used was 10 mM HEPES (pH 7.5), 1 mM EDTA, 0.1% Igepal CA-630, 50 mM NaCl, and 5% DMSO. The final concentration of protein used was at 65 nM which correspond to the dissociation constants (Kd) for the individual protein-peptide interactions in assay buffer. The protein was first added to the black 384 well plate (Corning 3676) followed by test compounds and fluorophore-labeled peptide. The plates were centrifuged, and measured using Safire^2 well plate reader (Tecan, Crailsheim, Germany) after 15 minutes incubation at room temperature. […] For the analysis of the data GraphPad Prism 5 was used. Ligand efficiencies (LE) were calculated using equation derived as followed. LE=−ΔG°/HA with (ΔG°) is the standard free energy of binding in KJ and HA is the number of non-hydrogen atoms.

On STAT5b-SH2 domain, `O=C(O)c1nonc1NCn1nnnc1-c1cccc(OC(F)(F)F)c1` [Compound 26] yielded a Ki of 3 ± 0.7 µM and an LE of 1.21.
With `O=C(O)c1nonc1NCn1nnnc1Cc1cccc(Cl)c1` [Compound 173], the “cellular activity (cell proliferation curves, FIG. 8)” value (shortened to “cellular activity”) with BaF3/FLT3-ITD cells is “significant cellular activity”.
For the compound `O=C(O)c1nonc1NCn1cncn1` [Compound 10], at STAT5b-SH2 domain, the affinity, expressed as Ki, was 47.5 ± 8.5 µM and the “activity / binding to the STAT5-SH2 domain” value (“activity / binding” for short) was “completely inactive”. The LE at STAT5b-SH2 domain (Table 1, ligand efficiency) stood at 1.64 kJ/mol* atom#.
Regarding `O=C(O)c1nonc1NCn1cccn1` [Compound 13], on STAT5b-SH2 domain, the Kd worked out at 122 µM and the affinity corresponds to a Ki of 122 ± 7.3 µM. For the same compound, the LE on STAT5b-SH2 domain (Table 1, ligand efficiency) came to 1.49 kJ/mol* atom#.
At STAT5b-SH2 domain, `O=C(O)c1nonc1NCn1nnnc1-c1cccc(F)c1` [Compound 27] returned a Kd of 0.62 µM, a Ki of 0.62 ± 0.09 µM and an LE of 1.61.
Consider `Cc1ccc(Cc2nnnn2CNc2nonc2C(=O)O)cc1` [Compound 174], for which the “cellular activity” value in the data set on BaF3/FLT3-ITD cells is “significant cellular activity”.
`COc1ccc(Cc2nnnn2CNc2nonc2C(=O)O)cc1` [Compound 177]: in the data set on BaF3/FLT3-ITD cells, the “cellular activity” value is on record as “significant cellular activity”.
On to `CC(C)C[C@H](NC(=O)[C@H](Cc1ccc(OP(=O)(O)O)cc1)NC(=O)CNC(=O)c1ccc2c(c1)C(=O)OC21c2ccc(O)cc2Oc2cc(O)ccc21)C(=O)N[C@@H](CO)C(=O)N[C@@H](CC(C)C)C(=O)N1CCC[C@H]1C(=O)N1CCC[C@H]1C(=O)N[C@@H](Cc1c[nH]c2ccccc12)C(N)=O` [Compound 2, Fluo-GY*LSLPPW-NH2, reference compound] (5FAM-G[pY]LSLPPW-NH2), for which, at STAT5b-SH2 domain, the Kd came out at 0.055 µM and the Ki came to 0.055 ± 0.006 µM. This compound yielded an LE at STAT5b-SH2 domain (Table 1, ligand efficiency) of 0.42 kJ/mol* atom#.
As for `COC(=O)c1nsnc1NCn1cnnn1` [Compound 8], on STAT5b-SH2 domain, the Ki is greater than 500 µM and the “activity / binding” value was “inactive”.
As for `O=C(O)c1nonc1NCn1nnnc1CCc1ccccc1` [Compound 169], the “cellular activity” value in the data set on BaF3/FLT3-ITD cells is recorded as “significant cellular activity”.
On to `CC(=O)OC(C)OC(=O)c1nonc1NCn1cnnn1` (centres unmarked) [Compound 15], for which, at STAT3, the STAT3 phosphorylation entry is recorded as “negligible effects” and the “endogenous STAT3 expression” value is “negligible effects”. In the data set on STAT5 (6 h treatment, BaF3/FLT3-ITD), the “tyrosine phosphorylation of STAT5, dose dependence” value is on record as “decrease the tyrosine phosphorylation of STAT5 in a dose dependent manner”. Also, the “overall expression of endogenous STAT5” value with STAT5 (BaF3/FLT3-ITD) is listed as “no effect”. In addition, the IC50 with STAT5 (read-out: IC50 of STAT5 phosphorylation inhibition, BaF3/FLT3-ITD cells, 6 h) is 68.9 µM. In addition, the cytotoxicity effect entry in data set [1] was “negligible”. In addition, on STAT5b-SH2 domain, the Kd was determined as 14 µM and the inhibition constant Ki stood at 4.6 ± 1.7 µM. This compound had an LE on STAT5b-SH2 domain (Table 1, ligand efficiency) of 1.45 kJ/mol* atom#. Besides, in data set [2], the “Pim1, cyclin D1 and Bcl-xL expression” value was “dose dependent reduction”. Moreover, the “inhibition of cell proliferation” value with BaF3/FLT3-ITD cells (48 h, Alamar blue, FLT3-ITD cells) was “clear dose-dependent inhibition”.
Take `O=C(O)c1nonc1NCn1ccnn1` [Compound 9]: at STAT5b-SH2 domain, the affinity corresponds to a Ki of 191 ± 24 µM and the “activity / binding” value is “completely inactive”. Besides, the LE on STAT5b-SH2 domain (Table 1, ligand efficiency) is recorded as 1.41 kJ/mol* atom#.
`O=C(O)c1nonc1NCn1nnnc1-c1ccc(-c2ccccc2)cc1` [Compound 29]: on STAT5b-SH2 domain, the Kd came to 0.8 µM, the Ki came out at 0.8 ± 0.2 µM and the LE is 1.30.
Regarding `COC(=O)c1nonc1NCn1nnnc1-c1cccc(C(F)(F)F)c1` [Compound 20], at STAT5b-SH2 domain, the affinity corresponds to a Ki of 9.5 ± 1.8 µM and the LE came to 1.10.
Take `O=C(O)c1nonc1NCn1nnnc1COCc1ccccc1` [Compound 108]: the “cellular activity” value in the data set with BaF3/FLT3-ITD cells is listed as “significant cellular activity”.
On STAT5b-SH2 domain, `COC(=O)c1nonc1NCn1nnnc1-c1cccc(O)c1` [Compound 24] came in with a Ki of 22.3 ± 3 µM and an LE of 1.21.
`O=C(O)c1nonc1NCn1nnnc1-c1ccc(F)cc1` [Compound 28] displayed an LE on STAT5b-SH2 domain of 1.42.
Turning to `Nc1nonc1C(=O)O` [Compound 4, 4-Amino-furazan-3-carboxylic Acid], at STAT5b-SH2 domain (Table 1, ligand efficiency), the LE turned out to be 2.14 kJ/mol* atom#. Also, the “activity / binding” value at STAT5b-SH2 domain is “inactive”.
Consider `O=C(O)c1nonc1NCn1nnnc1Cc1cccc(F)c1` [Compound 178], for which the “cellular activity” value with BaF3/FLT3-ITD cells is reported as “significant cellular activity”.
With `COC(=O)c1nonc1NCn1nnnc1-c1ccc(C(F)(F)F)cc1` [Compound 18], on STAT5b-SH2 domain, affinity was put at a Ki of 94.9 ± 2.1 µM and the LE is on record as 0.88.
Turning to `COC(=O)c1nonc1NC(=O)Cn1cnnn1` [Compound 14], at STAT5b-SH2 domain, the Ki was greater than 500 µM and the “activity / binding” value is given as “abolished the activity”.
`O=C(O)c1nonc1NCn1nnnc1-c1cccc(OCc2ccccc2)c1` [Compound 19]: on STAT5b-SH2 domain, the Ki came to 1.2 ± 0.5 µM and the LE is 1.16.
`COC(=O)c1nonc1NCn1nnnc1-c1cccc([N+](=O)[O-])c1` [Compound 22] gave a Ki on STAT5b-SH2 domain greater than 500 µM.
Take `O=C(O)c1nonc1NCn1nnc2ccccc21` [Compound 12]: on STAT5b-SH2 domain, the Ki turned out to be 188 ± 25 µM and the “activity / binding” value is “completely inactive”. For the same compound, at STAT5b-SH2 domain (Table 1, ligand efficiency), the LE stood at 1.12 kJ/mol* atom#.
In the case of `c1nnn[nH]1` [Compound 5, 1H-tetrazole, reference compound], the Ki on STAT5b-SH2 domain (Table 1, inhibitors of STAT5b, KI converted from IC50) is greater than 500 µM. The “activity / binding” value on STAT5b-SH2 domain was “inactive”.
Consider `O=C(O)c1nonc1NCn1nnnc1COCCc1ccccc1` [Compound 113], for which, in the data set with BaF3/FLT3-ITD cells, the “cellular activity” value is “significant cellular activity”.
At STAT5b-SH2 domain, `COC(=O)c1nonc1NCn1nnnc1-c1cccc(NS(C)(=O)=O)c1` [Compound 23] displayed a Ki of 18.3 ± 2.4 µM and an LE of 1.00.
With `O=C(O)c1nonc1NCn1nnnc1CCCc1ccccc1` [Compound 196], the “cellular activity” value with BaF3/FLT3-ITD cells was “significant cellular activity”.
On STAT5b-SH2 domain, `CCCCOC(=O)c1nonc1NCn1cnnn1` [Compound 7] had a Kd of 145 µM and a Ki of 48.2 ± 5 µM. This compound yielded an LE at STAT5b-SH2 domain (Table 1, ligand efficiency) of 1.30 kJ/mol* atom#.
On to `O=Cc1ccc(OP(=O)(O)O)cc1` [Compound 1, 4-Formylphenyl-dihydrogen-phosphate, reference compound], for which, on STAT5b-SH2 domain, the Ki was greater than 500 µM.
In the case of `O=C(O)c1nonc1NCn1nnnc1-c1cccc(C(F)(F)F)c1` [Compound 21], at STAT5b-SH2 domain, binding was put at a Kd of 0.86 µM, the affinity corresponds to a Ki of 0.86 ± 0.05 µM and the LE is recorded as 1.38.
`O=C(O)c1nonc1NCn1nnnc1CCOc1ccccc1` [Compound 104]: the “cellular activity” value with BaF3/FLT3-ITD cells is given as “significant cellular activity”.
Still for that read-out and setting: under `O=C(O)c1nonc1NCn1nnnc1COc1ccccc1` [Compound 100] stands “significant cellular activity”.
Consider `O=C(O)c1nonc1NCc1ccccn1` [Compound 11], for which, at STAT5b-SH2 domain, the Ki was greater than 500 µM and the “activity / binding” value was “completely inactive”.
As to `O=C(O)c1nonc1NCn1nnnc1Cc1ccc(F)cc1` [Compound 31], at STAT5b-SH2 domain, affinity was put at a Ki of 7.2 ± 1.9 µM and the LE came to 1.28.
The matching figures for `COC(=O)c1nonc1NCn1nnnc1-c1cccc(OC(F)(F)F)c1` [Compound 25]: 16.7 ± 4.3 µM and 1.01.
As to `COC(=O)c1nonc1NCn1nnnc1-c1ccccc1` [Compound 17], on STAT5b-SH2 domain, binding was characterised by a dissociation constant (Kd) of 37 µM; the affinity, expressed as Ki, was 37.1 ± 6 µM; the LE turned out to be 1.15.

By Ki is commonly meant a dissociation constant, usually derived from enzyme kinetics or from competition with a known ligand. A low value points to tighter binding. In general, Kd refers to the equilibrium constant for the complex coming apart. A higher Kd goes with lower affinity. As a reminder, the IC50 is the point on the concentration scale where inhibition reaches its midpoint.
